Experimental data published in patent US10537558B2 (Bantam Pharmaceutical, LLC, priority 2015, dated 2020).

Test system: BJAB cells
Assay: BJAB cell proliferation (Cell Titer Glo)
Format: cell-based
Details: Homo sapiens, read-out: EC50
Method: Cells were seeded in white Corning Costar 96-well assay plates at 2500 cells/well in 50 μL of medium. Serial dilutions of test compounds were made in cell culture medium/FBS+0.2% DMSO, and transferred to assay plates in a volume of 50 μL (DMSO at 0.1% final). Plates were maintained at 37° C. for approximately 72 hours. The effect of compounds on cell proliferation was evaluated using the Cell Titer Glo reagent (Promega), according to the manufacturer's instructions. Briefly, 100 μL of reagent was added per well, and after a 10 minute incubation luminescence values were determined on a plate reader (Tecan F200PRO). The percent of luminescence signal relative to untreated controls was calculated for each compound concentration, and EC50 values were determined from dose response data by non-linear regression analysis using Prism (GraphPad). The mTor inhibitor Torin1 (Liu, et al. (2010) J. Med. Chem. 53, 7146.) was used as a control. The data are summarized in the compound table provided above.

Row | Structure (SMILES) | EC50
1 | Cc1nn(-c2nc(-c3ccc(Cl)c(Cl)c3)c(SC(C)C)s2)c(C(=O)O)c1-c1cccc(C(C)C)c1 [Compound 61, 1-(4-(3,4-dichlorophenyl)-5-(isopropylthio)thiazol-2-yl)-4-(3-isopropylphenyl)-3-methyl-1H-pyrazole-5-carboxylic Acid] | 1 to 5 µM
2 | COc1ccc(C)cc1-c1c(C)nn(-c2nc(-c3ccc(Cl)c(Cl)c3)c(SC(C)C)s2)c1C(=O)O [Compound 62, 1-(4-(3,4-dichlorophenyl)-5-(isopropylthio)thiazol-2-yl)-4-(2-methoxy-5-methylphenyl)-3-methyl-1H-pyrazole-5-carboxylic acid] | 5 to 10 µM
3 | Cc1nn(-c2nc(-c3ccc(Cl)c(Cl)c3)c(SC(C)C)s2)c(C(=O)O)c1-c1ncc[nH]1 [Compound 63, 1-(4-(3,4-dichlorophenyl)-5-(isopropylthio)thiazol-2-yl)-4-(1H-imidazol-2-yl)-3-methyl-1H-pyrazole-5-carboxylic acid] | 10 to 25 µM
4 | Cc1nn(-c2nc(-c3ccc(Cl)c(Cl)c3)c(SC(C)C)s2)c(C(=O)O)c1-c1cnn2ccccc12 [Compound 64, 1-(4-(3,4-dichlorophenyl)-5-(isopropylthio)thiazol-2-yl)-3-methyl-4-(pyrazolo[1,5-a]pyridin-3-yl)-1H-pyrazole-5-carboxylic acid] | 10 to 25 µM
5 | Cc1nn(-c2nc(-c3ccc(Cl)c(Cl)c3)c(SC(C)C)s2)c(C(=O)O)c1-c1cnn2cccnc12 [Compound 65, 1-(4-(3,4-dichlorophenyl)-5-(isopropylthio)thiazol-2-yl)-3-methyl-4-(pyrazolo[1,5-a]pyrimidin-3-yl)-1H-pyrazole-5-carboxylic acid] | 25 to 50 µM
6 | Cc1nn(-c2nc(-c3ccc(Cl)c(Cl)c3)c(SC(C)C)s2)c(C(=O)O)c1-c1cnn(C)c1 [Compound 66, 2-(4-(3,4-dichlorophenyl)-5-(isopropylthio)thiazol-2-yl)-2′,5-dimethyl-4,4′-bi(2H-pyrazole)-3-carboxylic acid] | 5 to 10 µM
7 | Cc1nn(-c2nc(-c3ccc(Cl)c(Cl)c3)c(S(=O)(=O)C(C)C)s2)c(C(=O)O)c1-c1cnn(C)c1 [Compound 67, 2-(4-(3,4-dichlorophenyl)-5-(isopropylsulfonyl)thiazol-2-yl)-2′,5-dimethyl-4,4′-bi(2H-pyrazole)-3-carboxylic acid] | 25 to 50 µM
8 | Cc1nn(-c2nc(-c3ccc(Cl)c(Cl)c3)c(SC(C)C)s2)c(C(=O)O)c1-c1nc2ccccc2n1C [Compound 68, 1-(4-(3,4-dichlorophenyl)-5-(isopropylthio)thiazol-2-yl)-3-methyl-4-(1-methy-1H-benzo[d]imidazol-2-yl)-1H-pyrazole-5-carboxylic acid] | > 50 µM
9 | Cc1nn(-c2nc(-c3ccc(Cl)c(Cl)c3)c(SC(C)C)s2)c(C(=O)O)c1-c1cncc(C#N)c1 [Compound 69, 4-(5-cyanopyridin-3-yl)-1-(4-(3,4-dichlorophenyl)-5-(isopropylthio)thiazol-2-yl)-3-methyl-1H-pyrazole-5-carboxylic Acid] | 10 to 25 µM
10 | CCOc1ncccc1-c1c(C)nn(-c2nc(-c3ccc(Cl)c(Cl)c3)c(SC(C)C)s2)c1C(=O)O [Compound 70, 1-(4-(3,4-dichlorophenyl)-5-(isopropylthio)thiazol-2-yl)-4-(2-ethoxypyridin-3-yl)-3-methyl-1H-pyrazole-5-carboxylic Acid] | 10 to 25 µM
11 | Cc1cc(-c2c(C)nn(-c3nc(-c4ccc(Cl)c(Cl)c4)c(SC(C)C)s3)c2C(=O)O)n(C)n1 [Compound 71, 2′-(4-(3,4-dichlorophenyl)-5-(isopropylthio)thiazol-2-yl)-2,5,5′-trimethyl-3,4′-bi(2H-pyrazole)-3′-carboxylic Acid] | 10 to 25 µM
12 | Cc1nn(-c2nc(-c3ccc(Cl)c(Cl)c3)c(SC(C)C)s2)c(C(=O)O)c1-c1cncnc1 [Compound 72, 1-(4-(3,4-dichlorophenyl)-5-(isopropylthio)thiazol-2-yl)-3-methyl-4-(pyrimidin-5-yl)-1H-pyrazole-5-carboxylic Acid] | 10 to 25 µM
